# What was measured:
# cdk4/D = cdk4/D (Homo sapiens, UniProt P11802); test: Cyclin-dependent kinase 4 (cdk4) enzyme assay, 32P incorporation into retinoblastoma; assay type: biochemical; conditions: Table 1; 25 µM ATP, retinoblastoma substrate
# Protocol: A typical assay, for instance, measures inhibitory activity against the cyclin D dependent kinase 4 enzyme (cdk4/D). […] The cdk 4 assay was carried out as follows.
# (§1) All components except the ATP were added to the wells, and the plate was placed on a plate mixer for 2 minutes. […] The reaction was terminated by addition of 0.1 mL of 20% trichloroacetic acid (TCA). The plate was kept at 4°C for at least 1 hour to allow the substrate to precipitate. The wells were then washed five times with 0.2 mL of 10% TCA and ^32P incorporation was determined with a beta plate counter (Wallac Inc., Gaithersburg, MD).
# cdk2/cyclinE = cdk2/cyclinE (Homo sapiens, UniProt P24941); test: Cyclin-dependent kinase assay (cdk2/cyclinE); assay type: biochemical; conditions: Table 1; read-out: cdk2/E IC50
# Protocol: as §1, with “TCA.” for “trichloroacetic acid (TCA).”, “incorporation” for “incorporation was”
# cdk2/cyclinA = cdk2/cyclinA (Homo sapiens, UniProt P24941); test: Cyclin-dependent kinase assay (cdk2/cyclinA); assay type: biochemical; conditions: Table 1
# Protocol: as §1, with “TCA.” for “trichloroacetic acid (TCA).”, “incorporation” for “incorporation was”
# cdc2/cyclinB = cdc2/cyclinB (Homo sapiens, UniProt P06493); test: Cyclin-dependent kinase assay (cdc2/cyclinB); assay type: biochemical; conditions: Table 1; read-out: cdk1/B IC50
# Protocol: as §1, with “TCA.” for “trichloroacetic acid (TCA).”, “incorporation” for “incorporation was”
# c-Src = c-Src (Homo sapiens, UniProt P12931); test: c-Src protein kinase assay; assay type: biochemical; conditions: Table 5
# Protocol: C-Src kinase was purified from baculovirus infected insect cell lysates using an antipeptide monoclonal antibody directed against the N-terminal amino acids (amino acids 2-17) of c-Src. The antibody, covalently linked to 0.65 µm latex beads, was added to a suspension of insect cell lysis buffer comprised of 150 mM NaCl, 50 mM Tris pH 7.5, 1 mM DTT, 1% NP-40,2 mM EGTA, 1 mM sodium vanadate, 1 mM PMSF, 1 µg/mL each of leupeptin, pepstatin, and aprotinin. Insect cell lysate containing c-Src protein was incubated with these beads for 3 to 4 hours at 4°C with rotation. At the end of the lysate incubation, the beads were rinsed three times in lysis buffer, resuspended in lysis buffer containing 10% glycerol, and frozen. These latex beads were thawed, rinsed three times in assay buffer (40 mM Tris, pH 7.5, […]) and suspended in the same buffer. In a Millipore 96-well plate with a 0.65 µm polyvinylidine membrane bottom were added the reaction components: 10 µL c-Src beads, 10 µL of 2.5 mg/mL poly GluTyr substrate, 5 µM ATP containing 0.2 µCi labeled ^32P-ATP, 5 µL DMSO containing inhibitors or as a solvent control, and buffer to make the final volume 125 µL. The reaction was started at room temperature by addition of the ATP and quenched 10 minutes later by the addition of 125 µL of 30% TCA, 0.1 M sodium pyrophosphate for 5 minutes on ice. […] The filters were then punched, counted in a liquid scintillation counter, and the data examined for inhibitory activity in comparison to a known inhibitor such as erbstatin. […]
# [1] = Plasma levels in mice after dosing; assay type: in vivo, nude mice; conditions: at 30 minutes following dosing
# Protocol: For example, the compound of Example 60 was administered orally at 5 mg/kg to mice, and plasma levels of about 200 nM were measured at 30 minutes following dosing. The compound was also administered intraperitoneally at 12 mg/kg and produced a peak plasma concentration of 10,000 nM at 30 minutes following dosing.
# [2] = system: MCF-7 human mammary tumor xenografts; test: MCF-7 tumor xenograft growth inhibition in mice; assay type: in vivo, female nude mice; conditions: doses of 5 to 20 mg/kg, schedule q12h × 2; days 1-14
# [3] = target: T1, mouse PDGF-β receptor tyrosine kinase (Mus musculus, UniProt P05622); test: PDGF receptor tyrosine kinase assay; assay type: biochemical; conditions: Table 3
# T1 construct: amplify a fragment of DNA that codes for the intracellular tyrosine kinase domain; made in house; host or cells: SF9 insect cells (baculovirus)
# Description: (§2) Full-length cDNAs for the mouse PDGF-β and human FGF-1 (flg) receptor tyrosine kinases were obtained from J. Escobedo and prepared as described in J. Biol. Chem., 1991;262:1482-1487. PCR primers were designed to amplify a fragment of DNA that codes for the intracellular tyrosine kinase domain. The fragment was inserted into a baculovirus vector, cotransfected with AcMNPV DNA, and the recombinant virus isolated. SF9 insect cells were infected with the virus to overexpress the protein, and the cell lysate was used for the assay. Assays were performed in 96-well plates (100 µL/incubation/well), and conditions were optimized to measure the incorporation of ^32P from γ^32P-ATP into a glutamate-tyrosine co-polymer substrate. Briefly, to each well was added 82.5 µL of incubation buffer containing 25 mM Hepes (pH 7.0), 150 mM NaCl, 0.1% Triton X-100, 0.2 mM PMSF, 0.2 mM Na3VO4, 10 mM MnCl2, and 750 µg/mL of Poly (4:1) glutamate-tyrosine followed by […] of inhibitor and 5 µL of enzyme lysate (7.5 µg/µL FGF-TK or 6.0 µg/µL PDGF-TK) to initiate the reaction. Following a 10 minute incubation at 25°C, […] of γ^32P-ATP (0.4 µCi plus 50 µM ATP) was added to each well, and samples were incubated for an additional 10 minutes at 25°C. The reaction was terminated by the addition of 100 µL of 30% trichloroacetic acid (TCA) containing 20 mM sodium pyrophosphate and precipitation of material onto glass fiber mats (Wallac). Filters were washed three times with 15% TCA containing 100 mM sodium pyrophosphate, and the radioactivity retained on the filters counted in a Wallac 1250 Betaplate reader. Nonspecific activity was defined as radioactivity retained on the filters following incubation of samples with buffer alone (no enzyme). Specific enzymatic activity (enzyme plus buffer) was defined as total activity minus nonspecific activity. […]
# [4] = target: T2, human FGF-1 (flg) receptor tyrosine kinase (Homo sapiens, UniProt P11362); test: FGF receptor tyrosine kinase assay; assay type: biochemical; conditions: Table 3
# T2 construct: amplify a fragment of DNA that codes for the intracellular tyrosine kinase domain; made in house; host or cells: SF9 insect cells (baculovirus)
# Description: as §2
# cdk6/D2 = cdk6/D2 (Homo sapiens, UniProt Q00534); test: cdk6/D2 enzyme assay, similar to cdk4 assay; assay type: biochemical; conditions: read-out: IC50 against cdk6/D2
# Protocol: (§3) The total volume was 0.1 mL containing a final concentration of 20 mM TRIS (tris[hydroxymethyl]aminomethane), at pH 7.4, 50 mM NaCl, 1 mM dithiothreitol, 10 mM MgCl2, 25 µM ATP containing 0.25 µCi of [^32P]ATP, 20 ng of cdk4, 1 µg of retinoblastoma, and appropriate dilutions of a compound of the present invention. All components except the ATP were added to the wells, and the plate was placed on a plate mixer for 2 minutes. The reaction was started by adding [^32P]ATP and the plate was incubated at 25°C for 15 minutes. The reaction was terminated by addition of 0.1 mL of 20% trichloroacetic acid (TCA). The plate was kept at 4°C for at least 1 hour to allow the substrate to precipitate. The wells were then washed five times with 0.2 mL of 10% TCA and ^32P incorporation was determined with a beta plate counter (Wallac Inc., Gaithersburg, MD).
# (§4) Several of the invention compounds have also shown good inhibitory activity against cdk6/D2 and cdk6/D3 enzymes. These assays are carried out in a manner similar to that described above for cdk4, by simply employing the appropriate cdk6 kinase enzyme.
# cdk6/D3 = cdk6/D3 (Homo sapiens, UniProt Q00534); test: cdk6/D3 enzyme assay, similar to cdk4 assay; assay type: biochemical; conditions: read-out: IC50 against cdk6/D3
# Protocol: as §3, §4
# c-Src, sequence (P12931 whole entry, the tested form may be a part): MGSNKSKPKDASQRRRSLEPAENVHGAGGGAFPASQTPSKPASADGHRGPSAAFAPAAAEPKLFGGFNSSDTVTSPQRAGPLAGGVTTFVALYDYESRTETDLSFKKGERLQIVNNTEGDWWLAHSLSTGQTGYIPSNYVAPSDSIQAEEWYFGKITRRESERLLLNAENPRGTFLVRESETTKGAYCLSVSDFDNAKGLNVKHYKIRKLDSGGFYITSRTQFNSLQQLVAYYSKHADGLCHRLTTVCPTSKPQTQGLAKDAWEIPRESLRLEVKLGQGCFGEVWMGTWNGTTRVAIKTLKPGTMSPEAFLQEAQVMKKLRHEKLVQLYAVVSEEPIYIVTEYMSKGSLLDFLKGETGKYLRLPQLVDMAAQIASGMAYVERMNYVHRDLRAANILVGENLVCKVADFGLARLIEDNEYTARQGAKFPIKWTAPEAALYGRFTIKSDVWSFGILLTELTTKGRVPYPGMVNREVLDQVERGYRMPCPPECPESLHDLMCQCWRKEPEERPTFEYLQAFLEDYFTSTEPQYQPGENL
# cdc2/cyclinB, sequence (P06493 whole entry): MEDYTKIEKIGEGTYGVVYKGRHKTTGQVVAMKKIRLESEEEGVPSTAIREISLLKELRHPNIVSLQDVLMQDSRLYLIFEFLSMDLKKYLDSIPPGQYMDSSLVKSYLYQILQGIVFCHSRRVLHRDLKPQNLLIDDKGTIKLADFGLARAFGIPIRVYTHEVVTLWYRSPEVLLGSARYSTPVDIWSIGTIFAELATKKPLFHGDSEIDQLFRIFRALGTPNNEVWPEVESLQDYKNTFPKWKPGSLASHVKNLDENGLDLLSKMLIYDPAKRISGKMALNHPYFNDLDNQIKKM
# cdc2/cyclinB, sequence (P14635 whole entry, further chain): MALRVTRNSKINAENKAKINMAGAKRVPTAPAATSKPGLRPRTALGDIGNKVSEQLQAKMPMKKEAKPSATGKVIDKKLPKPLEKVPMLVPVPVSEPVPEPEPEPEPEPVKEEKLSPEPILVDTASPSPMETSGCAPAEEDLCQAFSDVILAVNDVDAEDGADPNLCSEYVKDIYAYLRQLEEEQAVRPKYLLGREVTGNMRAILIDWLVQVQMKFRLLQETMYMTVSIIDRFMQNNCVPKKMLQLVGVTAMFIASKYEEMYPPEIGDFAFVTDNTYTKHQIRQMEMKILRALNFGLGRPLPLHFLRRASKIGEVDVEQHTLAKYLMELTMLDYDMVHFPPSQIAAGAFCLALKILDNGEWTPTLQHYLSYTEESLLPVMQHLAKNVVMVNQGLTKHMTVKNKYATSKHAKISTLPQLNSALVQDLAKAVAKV
# cdk4/D, sequence (P11802 whole entry): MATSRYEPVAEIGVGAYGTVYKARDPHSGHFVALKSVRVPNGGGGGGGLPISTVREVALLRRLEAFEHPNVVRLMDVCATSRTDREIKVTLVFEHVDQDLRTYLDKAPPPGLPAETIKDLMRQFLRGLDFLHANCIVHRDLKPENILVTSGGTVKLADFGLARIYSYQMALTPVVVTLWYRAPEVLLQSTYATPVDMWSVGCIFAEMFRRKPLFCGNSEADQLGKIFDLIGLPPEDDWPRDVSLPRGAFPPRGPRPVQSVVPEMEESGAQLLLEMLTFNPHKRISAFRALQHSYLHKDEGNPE
# cdk4/D, sequence (P24385 whole entry, further chain): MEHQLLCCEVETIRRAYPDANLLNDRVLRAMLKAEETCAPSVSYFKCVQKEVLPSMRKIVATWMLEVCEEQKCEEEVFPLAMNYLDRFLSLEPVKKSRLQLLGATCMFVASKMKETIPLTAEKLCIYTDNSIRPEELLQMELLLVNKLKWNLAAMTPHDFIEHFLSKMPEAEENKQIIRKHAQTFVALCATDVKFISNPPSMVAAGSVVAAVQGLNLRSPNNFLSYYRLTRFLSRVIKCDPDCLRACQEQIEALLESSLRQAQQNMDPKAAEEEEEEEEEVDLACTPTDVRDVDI
# T1 sequence (P05622 599-961 limits assumed): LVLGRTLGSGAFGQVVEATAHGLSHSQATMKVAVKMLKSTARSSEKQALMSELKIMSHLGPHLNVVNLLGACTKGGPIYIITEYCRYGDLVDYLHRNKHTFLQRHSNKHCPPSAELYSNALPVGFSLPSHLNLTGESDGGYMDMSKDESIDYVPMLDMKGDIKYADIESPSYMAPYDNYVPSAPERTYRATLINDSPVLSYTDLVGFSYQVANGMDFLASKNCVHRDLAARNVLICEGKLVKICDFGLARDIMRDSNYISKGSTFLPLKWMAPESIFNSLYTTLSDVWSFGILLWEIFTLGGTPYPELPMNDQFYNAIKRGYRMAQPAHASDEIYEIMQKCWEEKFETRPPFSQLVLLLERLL
# T2 sequence (P11362 478-767 limits assumed): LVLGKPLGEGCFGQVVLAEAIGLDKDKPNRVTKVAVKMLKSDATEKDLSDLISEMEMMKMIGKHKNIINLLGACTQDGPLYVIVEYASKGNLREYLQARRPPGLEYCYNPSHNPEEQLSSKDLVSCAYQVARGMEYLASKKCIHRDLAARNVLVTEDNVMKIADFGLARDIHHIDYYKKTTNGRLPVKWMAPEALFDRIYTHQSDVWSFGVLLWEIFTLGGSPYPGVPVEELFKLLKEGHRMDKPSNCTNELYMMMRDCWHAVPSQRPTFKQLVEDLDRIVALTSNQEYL
# cdk6/D3, sequence (P30281 whole entry): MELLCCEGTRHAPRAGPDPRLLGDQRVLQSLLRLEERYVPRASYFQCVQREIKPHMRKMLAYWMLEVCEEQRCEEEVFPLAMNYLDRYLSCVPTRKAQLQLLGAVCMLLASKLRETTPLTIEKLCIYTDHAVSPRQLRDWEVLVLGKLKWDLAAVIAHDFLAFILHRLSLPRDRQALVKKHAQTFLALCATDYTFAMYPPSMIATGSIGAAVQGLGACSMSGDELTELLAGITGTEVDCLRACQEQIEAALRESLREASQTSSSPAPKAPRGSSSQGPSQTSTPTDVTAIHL
# cdk6/D3, sequence (Q00534 whole entry): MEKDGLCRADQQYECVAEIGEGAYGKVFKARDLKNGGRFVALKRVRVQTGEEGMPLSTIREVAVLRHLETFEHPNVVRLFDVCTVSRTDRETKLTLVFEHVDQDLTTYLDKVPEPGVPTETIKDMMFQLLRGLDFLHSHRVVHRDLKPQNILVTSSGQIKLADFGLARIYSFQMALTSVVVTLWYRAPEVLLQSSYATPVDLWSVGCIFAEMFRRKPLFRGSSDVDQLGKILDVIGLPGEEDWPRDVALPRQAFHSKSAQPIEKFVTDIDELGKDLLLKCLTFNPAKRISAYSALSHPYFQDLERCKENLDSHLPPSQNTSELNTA
# cdk6/D2, sequence (Q00534 whole entry): as above
# cdk6/D2, sequence (P30279 whole entry, further chain): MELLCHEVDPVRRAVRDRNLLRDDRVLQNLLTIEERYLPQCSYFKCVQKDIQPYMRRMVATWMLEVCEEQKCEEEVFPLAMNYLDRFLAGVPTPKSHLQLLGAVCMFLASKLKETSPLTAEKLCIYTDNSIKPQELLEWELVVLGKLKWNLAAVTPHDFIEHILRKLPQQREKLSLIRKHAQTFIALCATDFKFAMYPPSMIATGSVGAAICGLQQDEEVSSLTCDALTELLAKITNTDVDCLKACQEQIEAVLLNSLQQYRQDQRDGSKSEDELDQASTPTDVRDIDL
IC50 (cdk4/D) [µM],IC50 (cdk2/cyclinE) [µM],IC50 (cdk2/cyclinA) [µM],IC50 (cdc2/cyclinB) [µM],IC50 (c-Src) [µM],Compound,other results
1.49,0.058,0.037,0.205,19.5,"CCCCn1c(=O)ccc2cnc(Nc3ccccc3)nc21 [Example 40, 8-Butyl-2-phenylamino-8H-pyrido[2,3-d]pyrimidin-7-one]",–
0.032,0.27,0.058,0.675,0.89,"CC(C)n1c(=O)ccc2cnc(Nc3ccc(N4CCN(C)CC4)cc3)nc21 [Example 60, 8-Isopropyl-2-[4-(4-methylpiperazin-1-yl)-phenylamino]-8H-pyrido[2,3-d]pyrimidin-7-one]","peak plasma concentration ([1]; intraperitoneally at 12 mg/kg): 10,000 nM; concentration at 30 min ([1]; nude, mouse, plasma, po, mice, orally at 5 mg/kg): ~200 nM; tumor growth inhibitions [2]: statistically insignificant tumor growth inhibitions"
1.7,–,–,–,21.2,"O=c1ccc2cnc(Nc3ccccc3)nc2n1-c1ccccc1 [Example 101, 2-Phenylamino-8-phenyl-8H-pyrido[2,3-d]pyrimidin-7-one]",–
–,–,–,–,0.545,"CN1CCN(c2ccc(Nc3ncc4ccc(=O)n(CCCOCc5ccccc5)c4n3)cc2)CC1 [Example 115, 8-(3-Benzyloxy-propyl)-2-[4-(4-methyl-piperazin-1-yl)-phenylamino]-8H-pyrido[2,3-d]pyrimidin-7-one]",–
–,–,–,–,1.1,"O=c1ccc2cnc(Nc3ccc(N4CCC(O)CC4)cc3)nc2n1C1CCCC1 [Example 198, 8-Cyclopentyl-2-[4-(4-hydroxy-piperidin-1-yl)-phenylamino]-8H-pyrido[2,3-d]pyrimidin-7-one]",–

# More lines, now with the values behind:
Compound,IC50 (cdk4/D) [µM],IC50 (cdk2/cyclinE) [µM],IC50 (cdk2/cyclinA) [µM],IC50 (cdc2/cyclinB) [µM],IC50 (c-Src) [µM],other results
"CCn1c(=O)ccc2cnc(Nc3ccncc3)nc21 [Example 50, 8-Ethyl-2-(pyridin-4-ylamino)-8H-pyrido[2,3-d]pyrimidin-7-one]",2,–,–,–,15,–
"CCN(CC)CCOc1ccc(Nc2ncc3ccc(=O)n(CC)c3n2)cc1 [Example 52, 2-[4-(2-Diethylaminoethoxy)-phenylamino]-8-ethyl-8H-pyrido[2,3-d]pyrimidin-7-one]",0.16,2.34,0.75,2.66,1.03,–
"CCN(CC)CCOc1ccc(Nc2ncc3ccc(=O)n(C(C)C)c3n2)cc1 [Example 59, 2-[4-(2-Diethylaminoethoxy)-phenylamino]-8-isopropyl-8H-pyrido[2,3-d]pyrimidin-7-one]",0.045,0.8,0.08,1.24,4.43,–
"O=c1ccc2cnc(Nc3ccccc3)nc2n1C1CCCCC1 [Example 131, 8-Cyclohexyl-2-phenylamino-8H-pyrido[2,3-d]pyrimidin-7-one]",0.047,0.125,0.079,0.749,–,IC50 [3]: 16.1 µM; IC50 [4]: 12.4 µM
"O=c1ccc2cnc(Nc3ccccc3)nc2n1C1CC2CCC1C2 (stereo not shown) [Example 180, 8-Bicyclo[2.2.1]hept-2-yl-2-phenylamino-8H-pyrido[2,3-d]pyrimidin-7-one]",0.038,0.173,0.075,0.503,–,IC50 [3]: 27.8 µM; IC50 [4]: 12 µM
"O=c1ccc2cnc(Nc3ccc(N4CCC(CCCO)CC4)cc3)nc2n1C1CC2CCC1C2 (stereo not shown) [Example 214, 8-Bicyclo[2.2.1]hept-2-yl-2-{4-[4-(3-hydroxy-propyl)-piperidin-1-yl]-phenylamino}-8H-pyrido[2,3-d]pyrimidin-7-one]",–,–,–,–,–,IC50 (cdk6/D2): 0.0071 µM; IC50 (cdk6/D3): 0.013 µM
